Test [1] deals with Human immunodeficiency virus type 1 protease (Human immunodeficiency virus 1, UniProt Q72874). Nature of the test: Inhibitory concentration against human immunodeficiency virus protease in fluorescence assay.
Test [2] has as its target Human immunodeficiency virus type 1 protease (Human immunodeficiency virus 1) (UniProt Q72874). Nature of the test: Percent inhibition against human immunodeficiency virus protease in fluorescence assay. Conditions: concentration not given here.
The target of test [3] is T1, Angiotensin-converting enzyme (Sus scrofa, UniProt Q4ACT8).
T1 sequence (Q4ACT8 whole entry): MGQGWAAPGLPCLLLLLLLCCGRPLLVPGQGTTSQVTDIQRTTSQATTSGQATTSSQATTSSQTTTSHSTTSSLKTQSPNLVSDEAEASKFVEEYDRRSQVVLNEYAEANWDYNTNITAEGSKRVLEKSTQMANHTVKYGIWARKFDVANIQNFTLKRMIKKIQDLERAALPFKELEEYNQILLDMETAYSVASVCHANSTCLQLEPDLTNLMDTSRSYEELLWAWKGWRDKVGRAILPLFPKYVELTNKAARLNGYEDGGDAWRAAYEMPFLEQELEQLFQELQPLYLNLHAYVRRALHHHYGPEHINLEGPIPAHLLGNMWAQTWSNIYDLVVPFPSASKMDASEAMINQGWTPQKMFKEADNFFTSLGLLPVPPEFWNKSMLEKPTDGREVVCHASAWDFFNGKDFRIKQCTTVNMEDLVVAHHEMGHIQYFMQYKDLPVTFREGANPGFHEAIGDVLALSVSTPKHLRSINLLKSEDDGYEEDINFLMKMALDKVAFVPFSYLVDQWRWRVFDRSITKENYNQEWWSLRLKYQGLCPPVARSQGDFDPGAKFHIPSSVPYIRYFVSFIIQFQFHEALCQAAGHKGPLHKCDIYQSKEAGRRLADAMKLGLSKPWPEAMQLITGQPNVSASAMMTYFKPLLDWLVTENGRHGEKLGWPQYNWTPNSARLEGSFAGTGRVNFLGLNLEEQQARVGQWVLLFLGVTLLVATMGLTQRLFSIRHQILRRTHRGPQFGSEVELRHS
Nature of the test: Inhibitory concentration against porcine kidney angiotensin converting enzyme cleavage of hippuryl-histidyl-leucine (HHL).

The structures appear in SMILES notation.

Consider `COC(=O)[C@@H](NC(=O)[C@@H](NC(=O)[C@H](Cc1ccccc1)NC(=O)N[C@H](Cc1ccccc1)NC(=O)[C@H](C)NC(=O)[C@H](C)N)C(C)C)C(C)C`, for which inhibition in test [1] was half-maximal at 32.4 µM (IC50). As to `COC(=O)[C@@H](NC(=O)[C@@H](NC(=O)C(Cc1ccccc1)NC(=O)N[C@H](Cc1ccccc1)NC(=O)[C@H](C)NC(=O)[C@H](C)NC(=O)OCc1ccccc1)C(C)C)C(C)C` (stereo partly drawn), the inhibition in test [2] is 35%. Molecule `CC(C)C[C@H](NC(=O)[C@H](Cc1ccccc1)NC(=O)NCNC(=O)CNC(=O)[C@@H](N)Cc1ccc(O)cc1)C(=O)O` showed a half-inhibitory concentration (IC50) in test [3] of 880 µM.

In general, IC50 refers to the concentration needed to halve the response being measured. A low value points to greater potency. In general, inhibition refers to the change of the read-out against control, counted positive when it falls.

The record behind these values is ChEMBL document CHEMBL1137094, “Facile incorporation of urea pseudopeptides into protease substrate analogue inhibitors” (Bioorg Med Chem Lett, 2004).
